Target: cholera toxin (Vibrio cholerae serotype O1, UniProt P01556)
Assay: biochemical
Format: binding, V. cholerae

Sequence of cholera toxin (P01556 22-124 limits assumed): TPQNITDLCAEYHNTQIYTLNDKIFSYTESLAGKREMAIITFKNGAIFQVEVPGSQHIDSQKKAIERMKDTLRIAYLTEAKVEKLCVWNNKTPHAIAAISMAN

Q: For `OC[C@H]1OC(O)[C@H](O)[C@@H](O)[C@H]1O` (stereo partly drawn) [D-galactose], which IC50 is on record?
A: 30 mM
